In patent US6184401A, “Alpha-fluoro alkynoic acids with anticonvulsant activity” (priority 1999, dated 2001):

Tests used:
[1] = system: animals (seizure induced by pentylenetetrazole); test: PTZ convulsion test (anticonvulsant activity); assay type: in vivo; conditions: intraperitoneal, sodium salt, PTZ 65 mg/kg s.c. after 15 minutes
Method: The anti-convulsive activity of the compounds of the invention was determined by the PTZ convulsion test (E. Swinyard et al., 1969, "Laboratory Evaluation of Antiepileptic Drugs, Review of Laboratory Methods," Epilepsia 10, 107-119; E. Swinyard, J. Woodhead, in Antiepileptic Drugs, 2nd ed., D. Woodbury, J. Penry, C. Pippenger, eds., Raven Press, New York, 1982, 111-126). Briefly, animals were dosed intraperitoneally with the sodium salt of the compound to be tested, and then challenged after 15 minutes with a subcutaneous injection of pentylenetetrazole (65 mg/kg). The percentage of animals that were protected from seizure (defined as at least one episode of continuous seizure activity lasting at least five seconds) is reported in Table 1 as "Anticonvulsant Activity %".

fetuses = test: Teratogenic potential: exencephaly in fetuses of treated pregnant animals; assay type: in vivo; conditions: sodium salt, injected day 8 of gestation, fetuses examined day 18
Method: The teratogenic potential of the compounds was determined by injecting pregnant animals on day 8 of gestation with the sodium salt of the compound to be tested, and by examining the fetuses on day 18 of gestation (H. Nau, 1985, Toxicol. Appl. Pharmacol., 80, 243-250; H. Nau, W. Loscher, 1986, Fund. Appl. Toxicol., 6, 669).

[2] = anticonvulsant; cited from earlier work
animals = assay type: in vivo; conditions: dose 1.5 mmol/kg, sodium salt, after 15 minutes
Method: The sedative activity of the compounds was determined by the "Rotorod" test (Dunham, Miya, 1957, J. Am. Pharm. Assoc., 46, 208-209). Animals were dosed with the sodium salt of the compound to be tested, and after 15 minutes they were placed on the ROTOROD apparatus (Rotorod, Ugobasile, Italy). The percentage of animals that fell from the rod is reported as "Sedative Activity %" in Table 1.

[3] = system: newborns of women taking VPA; conditions: newborns of women taking VPA during pregnancy; cited from earlier work
mice = conditions: cited from earlier work
[4] = in vivo; cited from earlier work
children on polytherapy = conditions: young children on polytherapy; cited from earlier work
hepatotoxicity = conditions: effect of the 2-fluoro substituent; cited from earlier work

With `CC#CCC(F)(CCCCC)C(=O)O` (centres unmarked) [Example 5, 2-fluoro-2-n-pentyl-4-hexynoic acid] the “Anticonvulsant Activity % (percentage of animals protected from seizure)” value ([1]; dose 1.5 mmol/kg) was 80% and the “Teratogenic Activity % (percent of fetuses exhibiting exencephaly)” value (fetuses; dose 1.5 mmol/kg) was 1%.

For `CCCC(CCC(F)(F)F)C(=O)O` (centres unmarked) [5,5,5-trifluoro-2-n-propyl pentanoic acid], the “potency relative to VPA” value [2] is listed as “less potent than VPA”.

In the case of `CC#CCC(F)(CCCCCCC)C(=O)O` (centres unmarked) [Example 7, 2-fluoro-2-n-heptyl-4-hexynoic acid], the “Anticonvulsant Activity % (percentage of animals protected from seizure)” value ([1]; dose 0.5 mmol/kg) is reported as 60% and the “Teratogenic Activity % (percent of fetuses exhibiting exencephaly)” value (fetuses; dose 1.0 mmol/kg) is reported as 0%.

In the case of `O=C(O)C(CCC(F)(F)F)CCC(F)(F)F` [5,5,5-trifluoro-2-(3,3,3-trifluoropropyl) pentanoic acid], the “potency relative to VPA” value [2] is listed as “less potent than VPA”.

For `CC#CCC(F)(CCC)C(=O)O` (centres unmarked) [Example 3, 2-fluoro-2-n-propyl-4-hexynoic acid], the “Anticonvulsant Activity % (percentage of animals protected from seizure)” value ([1]; dose 1.5 mmol/kg) was 20% and the “Teratogenic Activity % (percent of fetuses exhibiting exencephaly)” value (fetuses; dose 3.0 mmol/kg) was 2%.

In the case of `CCCC(CCC)C(=O)O` [VPA, 2-propylpentanoic acid], the “Anticonvulsant Activity % (percentage of animals protected from seizure)” value ([1]; dose 1.0 mmol/kg) is reported as 60%, the “Sedative Activity % (percentage of animals that fell from the rod)” value (animals) is reported as 40% and the “Teratogenic Activity % (percent of fetuses exhibiting exencephaly)” value (fetuses; dose 3.0 mmol/kg) is reported as 50%. The “risk of spina bifida” value [3] was 1-2%, the neural tube defects (mice) was “induce neural tube defects in mice” and the duration of action [4] was “short duration of action”. The serious side effects [4] was “sedation, potentially fatal hepatotoxicity, and teratogenicity” and the “VPA-induced hepatic fatality rate” value (children on polytherapy) was 1/500.

In the case of `C=CCC(F)(CCC)C(=O)O` (centres unmarked) [2-fluoro-2-propyl-4-pentenoic acid], the “hepatotoxicity relative to 2-propyl-4-pentenoic acid” value (hepatotoxicity) is given as “reduce hepatotoxicity relative to 2-propyl-4-pentenoic acid”.

For `CC#CCC(F)(CCCCCCCC)C(=O)O` (centres unmarked) [Example 8, 2-fluoro-2-n-octyl-4-hexynoic acid], the “Anticonvulsant Activity % (percentage of animals protected from seizure)” value ([1]; dose 0.25 mmol/kg) was 40% and the “Teratogenic Activity % (percent of fetuses exhibiting exencephaly)” value (fetuses; dose 0.5 mmol/kg) was 0%.

For `CCCC(F)(CCC)C(=O)O` [2-fluoro-2-propylpentanoic acid], the “potency relative to VPA” value [2] is listed as “less potent than VPA”.
